This is an account of results in ChEMBL document CHEMBL1150899, “Novel quinone methides from Salacia kraussii with in vitro antimalarial activity” (J Nat Prod, 1998).

Converted amounts (≈) assume the structure as drawn.

Data set [1] has as its system Plasmodium falciparum. As to the kind of experiment: Antiplasmodial activity against chloroquine-sensitive Plasmodium falciparum NF54 infected human erythrocytes as [3H]hypoxanthine uptake. It counts as functional, organism-based.
Data set [2] relates to Plasmodium falciparum. Description: Antiplasmodial activity against chloroquine-resistant Plasmodium falciparum K1 infected human erythrocytes as [3H]hypoxanthine uptake. It counts as functional, organism-based.
The subject of a further data set is HT-29. Description: Cytotoxicity against human HT-29 cells after 72 hrs by Alamar blue assay. It counts as functional, cell-based. The conditions noted are these: HT-29, 72 h.
Another data set relates to Mus musculus. As to the kind of experiment: Toxicity against Plasmodium berghei-infected mice (Mus musculus) assessed as mortality at 10 mg/kg, subcutaneously after 1 day. It counts as organism-based. Particulars: in vivo, sc, 24 h. Set-up: dose 10 mg/kg, route subcutaneous.

As usually defined, the IC50 is the concentration that inhibits the measured activity by half. Lower therefore signals greater potency. Consider `C=C1CC[C@]2(C=O)CC[C@]3(C)C4=CC=C5C(=CC(=O)C(O)=C5C)[C@]4(C)CC[C@@]3(C)[C@@H]2C1`, for which the results for the IC50 with Plasmodium falciparum [1] and with Plasmodium falciparum [2] were 0.0799 µg/mL (≈ 0.191 µM) and 0.094 µg/mL (≈ 0.225 µM), respectively.
As to `COC(=O)[C@]1(C)CC[C@]2(C)CC[C@]3(C)C4=CC=C5C(=CC(=O)C(O)=C5C)[C@]4(C)CC[C@@]3(C)[C@@H]2C1` [PRISTIMERIN], the IC50 in the data set with HT-29 amounted to 4.6 µg/mL (≈ 9.9 µM); in the data set on Plasmodium falciparum [1], 0.271 µg/mL (≈ 0.583 µM); with Plasmodium falciparum [2], 0.19 µg/mL (≈ 0.41 µM).
In the case of `C=C1CC[C@]2(C(=O)OC)CC[C@]3(C)C4=CC=C5C(=CC(=O)C(O)=C5C)[C@]4(C)CC[C@@]3(C)[C@@H]2C1`, the figures for the IC50 in the data set on HT-29, in the data set on Plasmodium falciparum [1] and with Plasmodium falciparum [2] were 2.38 µg/mL (≈ 5.31 µM), 0.0371 µg/mL (≈ 0.0827 µM) and 0.0276 µg/mL (≈ 0.0615 µM), respectively. For the same compound, the Activity result in the data set on Mus musculus was “Toxic”.
Take `CC1=C(O)C(=O)C=C2C1=CC=C1[C@@]2(C)CC[C@@]2(C)[C@@H]3C[C@](C)(C(=O)O)CC[C@]3(C)CC[C@]12C` [CELASTROL]: the IC50 in the data set on HT-29 is 1.3 µg/mL (≈ 2.88 µM); in the data set with Plasmodium falciparum [1], 0.254 µg/mL (≈ 0.564 µM); in the data set with Plasmodium falciparum [2], 0.181 µg/mL (≈ 0.401 µM).
In the data set on HT-29, `CCN(CC)CCCC(C)Nc1ccnc2cc(Cl)ccc12` (centres undefined) [CHLOROQUINE] showed an IC50 of 58 µg/mL (≈ 181 µM).
In the case of `C=C1CC[C@]2(CO)CC[C@]3(C)C4=CC=C5C(=CC(=O)C(O)=C5C)[C@]4(C)CC[C@@]3(C)[C@@H]2C1`, the figures for the IC50 with HT-29, in the data set with Plasmodium falciparum [1] and in the data set on Plasmodium falciparum [2] were 6.06 µg/mL (≈ 14.4 µM), 0.14 µg/mL (≈ 0.333 µM) and 0.114 µg/mL (≈ 0.272 µM), respectively.
Taken in the same sequence, the figures for `CC1=C(O)C(=O)C=C2C1=CC=C1[C@@]2(C)CC[C@@]2(C)[C@@H]3C[C@H](CO)CC[C@]3(C)CC[C@]12C` [ISOIGUESTEROL] were 2.43 µg/mL (≈ 5.75 µM), 0.0541 µg/mL (≈ 0.128 µM) and 0.0229 µg/mL (≈ 0.0542 µM).
